Reference: paper PMC4297217 (Therapeutic Drug Monitoring, 2015)

Experiments:
[1] = Citalopram serum concentration-to-dose
[2] = Escitalopram serum concentration-to-dose; conditions: patients aged 80 years; combined linear and square age model
[3] = Sertraline serum concentration-to-dose; format: in vivo, patients; conditions: concomitant PPI vs control group without PPI
[4] = with omeprazole, cited from earlier work

CN(C)CCCC1(c2ccc(F)cc2)OCc2cc(C#N)ccc21 (stereo not drawn) [Citalopram, citalopram]
Citalopram C/D ratio, age effect ([1]; patients aged 80 years, combined linear and square age model): roughly doubled

CN(C)CCC[C@@]1(c2ccc(F)cc2)OCc2cc(C#N)ccc21 [Escitalopram, escitalopram]
Escitalopram C/D ratio, age effect [2]: roughly doubled

Cc1c(OCC(F)(F)F)ccnc1C[S+]([O-])c1nc2ccccc2[nH]1 (stereo not drawn) [Lansoprazole, lansoprazole]
Expected Sertraline C/D Ratio Percent Change [3]: no significant differences

COc1ccc2[nH]c([S+]([O-])Cc3ncc(C)c(OC)c3C)nc2c1 (stereo not drawn) [Omeprazole, omeprazole]
increase in the concentration of R-citalopram ([4]; 9 healthy subjects): 25%
increase in the concentration of S-citalopram ([4]; 9 healthy subjects): ~2 fold
mean increase in the plasma concentration of escitalopram ([4]; healthy volunteers): ~100%
Expected Sertraline C/D Ratio Percent Change [3]: no significant differences

COc1ccnc(C[S+]([O-])c2nc3ccc(OC(F)F)cc3[nH]2)c1OC (stereo not drawn) [Pantoprazole, pantoprazole]
Expected Citalopram C/D Ratio Percent Change ([1]; concomitant PPI vs control group without PPI): No significant effect
Expected Sertraline C/D Ratio Percent Change [3]: no significant differences
